# From PubChem BioAssay AID1918955 (Molecular Pharmacology Branch, DTP, NCI, 2023)
# Test system: NCI/ADR-RES complex spheroid viability
# Assay: Anticancer human tumor NCI/ADR-RES cell line growth inhibition;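 further: spheroids exposed to compounds for 7 days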;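 on viability, T/C: 100% = DMSO vehicle treated spheroids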
# Details: for IC50: curve of first compound; for viability, T/C: stronger effect = lower value
# Procedure, shortened: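 Multicellular complex spheroids of tumor cells with human endothelial cells (HUVEC) and mesenchymal stem cells; the LSD1 inhibitor iadademstat was combined with standard-of-care or investigational agents. Top concentration at or near clinical Cmax, half-log dilutions; final DMSO ≤0.25%.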
# [1] = second compound 0.1 µM, first compound 0.0316 µM
# [2] = second compound 0.1 µM, first compound 0.1 µM
# [3] = second compound 0.316 µM, first compound 0.0316 µM
# [4] = second compound 0.316 µM, first compound 0.1 µM
# [5] = second compound 1 µM, first compound 0.0316 µM
# [6] = second compound 1 µM, first compound 0.1 µM
# [7] = second compound 3.16 µM, first compound 0.0316 µM
# [8] = second compound 3.16 µM, first compound 0.1 µM
# [9] = second compound 10 µM, first compound 0.0316 µM
# [10] = second compound 10 µM, first compound 0.1 µM
smiles,measurement,setting,value
CC1(C)CCC(CN2CCN(c3ccc(C(=O)NS(=O)(=O)c4ccc(NCC5CCOCC5)c([N+](=O)[O-])c4)c(Oc4cnc5[nH]ccc5c4)c3)CC2)=C(c2ccc(Cl)cc2)C1 + NC1CC1c1ccc(-c2cccc(O)c2)cc1,IC50,second compound 0.1 µM,> 10 µM
same,IC50,second compound 0.316 µM,> 10 µM
same,IC50,second compound 1 µM,> 10 µM
same,IC50,second compound 3.16 µM,> 10 µM
same,IC50,second compound 10 µM,> 10 µM
same,"viability, T/C",[1],107%
same,"viability, T/C",[2],109%
same,"viability, T/C","second compound 0.1 µM, first compound 0.316 µM",109%
same,"viability, T/C","second compound 0.1 µM, first compound 1 µM",104%
same,"viability, T/C","second compound 0.1 µM, first compound 3.16 µM",101%
same,"viability, T/C","second compound 0.1 µM, first compound 10 µM",95.6%
same,"viability, T/C",[3],110%
same,"viability, T/C",[4],111%
same,"viability, T/C","second compound 0.316 µM, first compound 0.316 µM",113%
same,"viability, T/C","second compound 0.316 µM, first compound 1 µM",101%
same,"viability, T/C","second compound 0.316 µM, first compound 3.16 µM",103%
same,"viability, T/C","second compound 0.316 µM, first compound 10 µM",89.7%
same,"viability, T/C",[5],103%
same,"viability, T/C",[6],106%
same,"viability, T/C","second compound 1 µM, first compound 0.316 µM",103%
same,"viability, T/C","second compound 1 µM, first compound 1 µM",99.8%
same,"viability, T/C","second compound 1 µM, first compound 3.16 µM",101%
same,"viability, T/C","second compound 1 µM, first compound 10 µM",99.4%
same,"viability, T/C",[7],97.1%
same,"viability, T/C",[8],97.8%
same,"viability, T/C","second compound 3.16 µM, first compound 0.316 µM",102%
same,"viability, T/C","second compound 3.16 µM, first compound 1 µM",108%
same,"viability, T/C","second compound 3.16 µM, first compound 3.16 µM",98.6%
same,"viability, T/C","second compound 3.16 µM, first compound 10 µM",89.8%
same,"viability, T/C",[9],88.6%
same,"viability, T/C",[10],98.4%
same,"viability, T/C","second compound 10 µM, first compound 0.316 µM",92.3%
same,"viability, T/C","second compound 10 µM, first compound 1 µM",94.5%
same,"viability, T/C","second compound 10 µM, first compound 3.16 µM",81.6%
same,"viability, T/C","second compound 10 µM, first compound 10 µM",75.7%
Cn1ncnc1C1c2n[nH]c(=O)c3cc(F)cc(c23)NC1c1ccc(F)cc1 (stereo not given) + NC1CC1c1ccc(-c2cccc(O)c2)cc1,IC50,second compound 0.1 µM,> 0.1 µM
same,IC50,second compound 0.316 µM,> 0.1 µM
same,IC50,second compound 1 µM,> 0.1 µM
same,IC50,second compound 3.16 µM,> 0.1 µM
same,IC50,second compound 10 µM,> 0.1 µM
same,"viability, T/C","second compound 0.1 µM, first compound 0.000316 µM",101%
same,"viability, T/C","second compound 0.1 µM, first compound 0.001 µM",104%
same,"viability, T/C","second compound 0.1 µM, first compound 0.00316 µM",106%
same,"viability, T/C","second compound 0.1 µM, first compound 0.01 µM",103%
same,"viability, T/C",[1],104%
same,"viability, T/C",[2],97%
same,"viability, T/C","second compound 0.316 µM, first compound 0.000316 µM",104%
same,"viability, T/C","second compound 0.316 µM, first compound 0.001 µM",107%
same,"viability, T/C","second compound 0.316 µM, first compound 0.00316 µM",104%
same,"viability, T/C","second compound 0.316 µM, first compound 0.01 µM",110%
same,"viability, T/C",[3],110%
same,"viability, T/C",[4],105%
same,"viability, T/C","second compound 1 µM, first compound 0.000316 µM",98.2%
same,"viability, T/C","second compound 1 µM, first compound 0.001 µM",101%
same,"viability, T/C","second compound 1 µM, first compound 0.00316 µM",109%
same,"viability, T/C","second compound 1 µM, first compound 0.01 µM",95.8%
same,"viability, T/C",[5],100%
same,"viability, T/C",[6],102%
same,"viability, T/C","second compound 3.16 µM, first compound 0.000316 µM",105%
same,"viability, T/C","second compound 3.16 µM, first compound 0.001 µM",99.3%
same,"viability, T/C","second compound 3.16 µM, first compound 0.00316 µM",100%
same,"viability, T/C","second compound 3.16 µM, first compound 0.01 µM",97%
same,"viability, T/C",[7],97.3%
same,"viability, T/C",[8],93.8%
same,"viability, T/C","second compound 10 µM, first compound 0.000316 µM",97.1%
same,"viability, T/C","second compound 10 µM, first compound 0.001 µM",91.1%
same,"viability, T/C","second compound 10 µM, first compound 0.00316 µM",90.5%
same,"viability, T/C","second compound 10 µM, first compound 0.01 µM",96.8%
same,"viability, T/C",[9],94.6%
same,"viability, T/C",[10],85.3%
